Assay results from ChEMBL document CHEMBL1201862, “PubChem BioAssay data set” (2004).
Values joined by “and” are separate entries in the source; they are usually repeats but may differ in a detail not shown here. Equal entries are not always repeated.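 Values below derive from 48-hour exposures of cells grown in 96-well plates, with endpoints linearly interpolated between the two concentrations bracketing the appropriate inhibition level. GI50 is the concentration that inhibits growth by half.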 Active and inactive are the calls of the source. No stated cut-off is given here; in the data, active = GI50 up to about 1.1 µM and inactive = higher.

Legend:
Assay in all cases: NCI tumour cell line growth inhibition, 48 h
A549 = test system: A549
CAKI-1 = test system: CAKI-1
DLD-1 = test system: DLD-1
DMS-114 = test system: DMS-114
HCC 2998 = test system: HCC 2998
HCT-116 = test system: HCT-116
HL-60 = test system: HL-60
HOP-62 = test system: HOP-62
KM12 = test system: KM12
MCF7 = test system: MCF7
MOLT-4 = test system: MOLT-4
NCI-H460 = test system: NCI-H460
OVCAR-3 = test system: OVCAR-3
SF-539 = test system: SF-539
SK-MEL-2 = test system: SK-MEL-2
XF498 = test system: XF498
786-0 = test system: 786-0
Hs-578T = test system: Hs-578T
MDA-N = test system: MDA-N
SR = test system: SR

| SMILES | GI50 (A549) | GI50 (CAKI-1) | GI50 (DLD-1) | GI50 (DMS-114) | GI50 (HCC 2998) | GI50 (HCT-116) | GI50 (HL-60) | GI50 (HOP-62) | GI50 (KM12) | GI50 (MCF7) | GI50 (MOLT-4) | GI50 (NCI-H460) | GI50 (OVCAR-3) | GI50 (SF-539) | GI50 (SK-MEL-2) | GI50 (XF498) | GI50 (786-0) | GI50 (Hs-578T) | GI50 (MDA-N) | GI50 (SR) |
| --- | --- | --- | --- | --- | --- | --- | --- | --- | --- | --- | --- | --- | --- | --- | --- | --- | --- | --- | --- | --- |
| CC(=O)c1ccc2c(c1)c1c(C)c3c[n+](C)ccc3c(C)c1n2C | 13.9 µM (inactive) | 6.92 µM (inactive) | 4.56 µM (inactive) | 2.14 µM (inactive) | 29.5 µM (inactive) | 2.29 µM (inactive) | 8.75 µM (inactive) | 7.36 µM (inactive) | 10.6 µM (inactive) | 3.1 µM (inactive) | 0.641 µM (active) | 2.76 µM (inactive) | 12 µM (inactive) | 2.37 µM (inactive) | 7.14 µM (inactive) | 2.53 µM (inactive) | – | – | – | – |
| CCCCCCCCCCCCCCCCCCOP(=O)([O-])OC1CC[N+](C)(C)CC1 [PERIFOSINE] | 10.7 µM (inactive) | 3.6 µM (inactive) | 10.4 µM (inactive) | 12.5 µM (inactive) | 5.16 µM (inactive) | 7.94 µM (inactive) | 1.19 µM (inactive) | 7.53 µM (inactive) | 0.53 µM (active) | 15.7 µM (inactive) | 3.4 µM (inactive) | 1.75 µM (inactive) | 13.2 µM (inactive) | 15.6 µM (inactive) | 13.8 µM (inactive) | 15.7 µM (inactive) | 2.73 µM (inactive) | 13 µM (inactive) | 12.4 µM (inactive) | 1.11 µM (active) |
| CCCCCCCCCCSCC(CO)NC(=O)/C=C/c1c(C)[nH]c(=O)[nH]c1=O (centres undefined) | 32.8 µM (inactive) and > 50 µM (inactive) | – | 1.44 µM (inactive) and 1.38 µM (inactive) | 548 nM (active) and 637 nM (active) | 1.08 µM (active) and 1.17 µM (inactive) | 1.26 µM (inactive) and 1.29 µM (inactive) | 1.82 µM (inactive) and 1.42 µM (inactive) | 2.03 µM (inactive) and 3.24 µM (inactive) | 1.42 µM (inactive) and 2.05 µM (inactive) | 753 nM (active) and 1.17 µM (inactive) | 1.22 µM (inactive) and 1.44 µM (inactive) | 1.51 µM (inactive) and 1.76 µM (inactive) | 916 nM (active) and 798 nM (active) | 1.46 µM (inactive) and 1.41 µM (inactive) | 1.25 µM (inactive) and 804 nM (active) | 519 nM (active) and 687 nM (active) | – | – | – | – |
| C[N+](C)(C)CC1CCc2ccccc2C1=O (centres undefined) | 26.3 µM (inactive) | 4.97 µM (inactive) | 4.86 µM (inactive) | 13.5 µM (inactive) | 15.3 µM (inactive) | 5.55 µM (inactive) | 2.52 µM (inactive) | 26.4 µM (inactive) | 10.8 µM (inactive) | 1.64 µM (inactive) | 2.32 µM (inactive) | 19.7 µM (inactive) | 4.49 µM (inactive) | 15.8 µM (inactive) | 16.7 µM (inactive) | 2.39 µM (inactive) | 6.46 µM (inactive) | 13.7 µM (inactive) | 5.86 µM (inactive) | 1.79 µM (inactive) |
| Nc1ccc(/N=N/c2ccc(/C=C/c3ccc(/N=N/c4ccc(N)c5ccc(S(=O)(=O)O)cc45)cc3S(=O)(=O)O)c(S(=O)(=O)O)c2)c2cc(S(=O)(=O)O)ccc12 | > 100 µM (inactive) | – | > 100 µM (inactive) | > 100 µM (inactive) | > 100 µM (inactive) | > 100 µM (inactive) | > 100 µM (inactive) | > 100 µM (inactive) | > 100 µM (inactive) | > 100 µM (inactive) | > 100 µM (inactive) | > 100 µM (inactive) | > 100 µM (inactive) | > 100 µM (inactive) | > 100 µM (inactive) | > 62.2 µM (inactive) | – | – | – | – |
| CN(C)CC(CC1=C(CC(CN(C)C)N(C)C)CCC1)N(C)C (centres undefined) | > 100 µM (inactive) | > 100 µM (inactive) | > 100 µM (inactive) | > 100 µM (inactive) | > 100 µM (inactive) | > 100 µM (inactive) | > 100 µM (inactive) | > 100 µM (inactive) | > 100 µM (inactive) | > 100 µM (inactive) | > 100 µM (inactive) | > 100 µM (inactive) | > 100 µM (inactive) | > 100 µM (inactive) | > 100 µM (inactive) | > 100 µM (inactive) | – | – | – | – |
| C=C1C(=O)OCC2C(C(=O)O)=CC3C(C)C(C)=CC123 (centres undefined) | 20.7 µM (inactive) | 19.6 µM (inactive) | 11 µM (inactive) | 7.69 µM (inactive) | 10.2 µM (inactive) | 9.48 µM (inactive) | 9.33 µM (inactive) | 12.2 µM (inactive) | 9.93 µM (inactive) | 8.13 µM (inactive) | 7.82 µM (inactive) | 9.14 µM (inactive) | 12.4 µM (inactive) | 8.51 µM (inactive) | 7.21 µM (inactive) | 12.5 µM (inactive) | – | – | – | – |
| CCCCCCCC/C=C\CCCCCCCC(=O)O [OLEIC ACID] | 109 µM (inactive) | 118 µM (inactive) | 148 µM (inactive) | 97.7 µM (inactive) | > 434 µM (inactive) | 114 µM (inactive) | 126 µM (inactive) | > 500 µM (inactive) | 240 µM (inactive) | 104 µM (inactive) | 148 µM (inactive) | 101 µM (inactive) | 184 µM (inactive) | 103 µM (inactive) | 206 µM (inactive) | 8.91 µM (inactive) | – | – | – | – |
